# Assay results: patent publication US20230257396A1, “MACROCYCLES AND THEIR USE” (BLOSSOMHILL THERAPEUTICS, INC., priority 2020, published 2023)
# Columns and labels:
# Assay in all cases: KINOMEscan kinase binding assay (Eurofins/DiscoveRx), % Ctrl
# Conditions in all cases: 1 μM
# [1] = molecular target: T1, kinases (Homo sapiens, UniProt P00519, E255K)
# T1 construct: purchased Eurofins/DiscoveRx; host or cells: E. coli BL21-derived host (T7 phage display) for most kinases; HEK-293 for the rest
# Procedure, shortened: (§1)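 Read-out is qPCR of kinase eluted from ligand-coated streptavidin beads after 1 h room-temperature competition with test compound. Values are % Ctrl at the tested concentration, lower meaning tighter binding.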
# [2] = molecular target: T2, kinases (Homo sapiens, UniProt P00519, H396P)
# T2 construct: purchased Eurofins/DiscoveRx; host or cells: E. coli BL21-derived host (T7 phage display) for most kinases; HEK-293 for the rest
# Procedure, shortened: as §1
# [3] = molecular target: T3, kinases (Homo sapiens, UniProt P00519, M351T)
# T3 construct: purchased Eurofins/DiscoveRx; host or cells: E. coli BL21-derived host (T7 phage display) for most kinases; HEK-293 for the rest
# Procedure, shortened: as §1
# [4] = molecular target: T4, kinases (Homo sapiens, UniProt P00519, Q252H)
# T4 construct: purchased Eurofins/DiscoveRx; host or cells: E. coli BL21-derived host (T7 phage display) for most kinases; HEK-293 for the rest
# Procedure, shortened: as §1
# [5] = molecular target: T5, kinases (Homo sapiens, UniProt P00519, Y253F)
# T5 construct: purchased Eurofins/DiscoveRx; host or cells: E. coli BL21-derived host (T7 phage display) for most kinases; HEK-293 for the rest
# Procedure, shortened: as §1
# [6] = molecular target: T6, kinases (Homo sapiens, UniProt P00533)
# T6 construct: purchased Eurofins/DiscoveRx; host or cells: E. coli BL21-derived host (T7 phage display) for most kinases; HEK-293 for the rest
# Procedure, shortened: as §1
# [7] = molecular target: T7, kinases (Homo sapiens, UniProt P00533, G719S)
# T7 construct: purchased Eurofins/DiscoveRx; host or cells: E. coli BL21-derived host (T7 phage display) for most kinases; HEK-293 for the rest
# Procedure, shortened: as §1
# [8] = molecular target: T8, kinases (Homo sapiens, UniProt P00533, L861Q)
# T8 construct: purchased Eurofins/DiscoveRx; host or cells: E. coli BL21-derived host (T7 phage display) for most kinases; HEK-293 for the rest
# Procedure, shortened: as §1
# [9] = molecular target: T9, kinases (Homo sapiens, UniProt P00533, T790M)
# T9 construct: purchased Eurofins/DiscoveRx; host or cells: E. coli BL21-derived host (T7 phage display) for most kinases; HEK-293 for the rest
# Procedure, shortened: as §1
# [10] = molecular target: T10, kinases (Homo sapiens, UniProt P07949)
# T10 construct: purchased Eurofins/DiscoveRx; host or cells: E. coli BL21-derived host (T7 phage display) for most kinases; HEK-293 for the rest
# Procedure, shortened: as §1
# [11] = molecular target: T11, kinases (Homo sapiens, UniProt P07949, V804L)
# T11 construct: purchased Eurofins/DiscoveRx; host or cells: E. coli BL21-derived host (T7 phage display) for most kinases; HEK-293 for the rest
# Procedure, shortened: as §1
# [12] = molecular target: T12, kinases (Homo sapiens, UniProt P10721, D816H)
# T12 construct: purchased Eurofins/DiscoveRx; host or cells: E. coli BL21-derived host (T7 phage display) for most kinases; HEK-293 for the rest
# Procedure, shortened: as §1
# [13] = molecular target: T13, kinases (Homo sapiens, UniProt P10721, L576P)
# T13 construct: purchased Eurofins/DiscoveRx; host or cells: E. coli BL21-derived host (T7 phage display) for most kinases; HEK-293 for the rest
# Procedure, shortened: as §1
# [14] = molecular target: T14, kinases (Homo sapiens, UniProt P36888, D835V)
# T14 construct: purchased Eurofins/DiscoveRx; host or cells: E. coli BL21-derived host (T7 phage display) for most kinases; HEK-293 for the rest
# T14 sequence (P36888 27-993 D835V): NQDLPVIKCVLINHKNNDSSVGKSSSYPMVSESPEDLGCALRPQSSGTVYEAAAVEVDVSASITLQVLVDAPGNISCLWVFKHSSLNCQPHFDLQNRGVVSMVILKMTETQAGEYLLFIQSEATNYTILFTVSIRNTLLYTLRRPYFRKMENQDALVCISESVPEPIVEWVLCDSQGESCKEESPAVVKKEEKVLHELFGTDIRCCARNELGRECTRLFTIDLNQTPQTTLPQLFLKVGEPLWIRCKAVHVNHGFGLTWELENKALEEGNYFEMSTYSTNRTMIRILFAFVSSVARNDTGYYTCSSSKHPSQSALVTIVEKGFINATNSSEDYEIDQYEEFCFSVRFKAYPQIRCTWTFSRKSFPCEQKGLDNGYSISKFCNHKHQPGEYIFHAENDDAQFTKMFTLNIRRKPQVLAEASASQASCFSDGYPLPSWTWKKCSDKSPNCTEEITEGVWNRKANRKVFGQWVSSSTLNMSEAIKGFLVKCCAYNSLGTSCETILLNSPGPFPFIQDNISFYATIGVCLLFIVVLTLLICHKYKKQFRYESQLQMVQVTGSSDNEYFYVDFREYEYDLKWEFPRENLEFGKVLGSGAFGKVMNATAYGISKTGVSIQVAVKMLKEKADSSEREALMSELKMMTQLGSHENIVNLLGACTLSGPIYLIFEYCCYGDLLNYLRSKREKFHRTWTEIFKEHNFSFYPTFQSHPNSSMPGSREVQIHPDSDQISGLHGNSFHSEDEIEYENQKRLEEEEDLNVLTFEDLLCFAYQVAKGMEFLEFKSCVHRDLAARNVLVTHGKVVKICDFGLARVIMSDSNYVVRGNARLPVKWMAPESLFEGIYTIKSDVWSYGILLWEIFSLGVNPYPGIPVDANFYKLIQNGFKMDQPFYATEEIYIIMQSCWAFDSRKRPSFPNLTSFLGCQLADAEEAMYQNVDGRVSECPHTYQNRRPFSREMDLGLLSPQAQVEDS
# Procedure, shortened: as §1
# [15] = molecular target: T15, kinases (Homo sapiens, UniProt P42684)
# T15 construct: purchased Eurofins/DiscoveRx; host or cells: E. coli BL21-derived host (T7 phage display) for most kinases; HEK-293 for the rest
# Procedure, shortened: as §1
# [16] = target ABL1(E255K)-phosphorylated
# [17] = target ABL1(H396P)-nonphosphorylated
# [18] = target ABL1(H396P)-phosphorylated
# [19] = target ABL1(M351T)-phosphorylated
# [20] = target ABL1(Q252H)-nonphosphorylated
# [21] = target ABL1(Q252H)-phosphorylated
# [22] = target ABL1(Y253F)-phosphorylated
# T10 sequence (P07949 29-1114): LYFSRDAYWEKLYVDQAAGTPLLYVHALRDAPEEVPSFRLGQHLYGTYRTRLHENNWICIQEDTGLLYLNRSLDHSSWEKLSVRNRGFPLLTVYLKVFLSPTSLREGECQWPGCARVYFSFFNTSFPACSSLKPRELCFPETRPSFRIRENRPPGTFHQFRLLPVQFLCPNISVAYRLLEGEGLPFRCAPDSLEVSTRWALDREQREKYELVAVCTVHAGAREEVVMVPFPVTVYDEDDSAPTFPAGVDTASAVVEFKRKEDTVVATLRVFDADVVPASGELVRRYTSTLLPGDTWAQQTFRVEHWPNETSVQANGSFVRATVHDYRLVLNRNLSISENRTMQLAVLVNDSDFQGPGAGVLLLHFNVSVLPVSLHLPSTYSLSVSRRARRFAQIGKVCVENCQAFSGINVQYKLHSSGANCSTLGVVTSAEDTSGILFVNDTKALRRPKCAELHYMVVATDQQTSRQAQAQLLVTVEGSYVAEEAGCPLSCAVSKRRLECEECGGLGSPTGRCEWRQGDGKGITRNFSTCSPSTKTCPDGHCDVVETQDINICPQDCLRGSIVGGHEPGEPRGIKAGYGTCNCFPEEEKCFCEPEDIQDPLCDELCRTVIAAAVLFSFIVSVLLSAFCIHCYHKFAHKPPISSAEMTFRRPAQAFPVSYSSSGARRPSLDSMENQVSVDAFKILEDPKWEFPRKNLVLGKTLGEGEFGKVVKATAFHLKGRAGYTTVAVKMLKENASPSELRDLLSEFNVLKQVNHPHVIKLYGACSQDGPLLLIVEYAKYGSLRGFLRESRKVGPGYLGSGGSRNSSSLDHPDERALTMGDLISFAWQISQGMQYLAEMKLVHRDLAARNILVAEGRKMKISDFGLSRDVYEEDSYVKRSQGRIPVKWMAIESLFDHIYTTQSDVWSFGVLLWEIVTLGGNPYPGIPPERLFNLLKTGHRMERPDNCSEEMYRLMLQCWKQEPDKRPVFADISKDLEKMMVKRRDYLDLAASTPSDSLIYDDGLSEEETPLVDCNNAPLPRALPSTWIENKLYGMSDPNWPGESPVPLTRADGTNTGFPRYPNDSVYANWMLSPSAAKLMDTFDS
# T12 sequence (P10721 26-976 D816H): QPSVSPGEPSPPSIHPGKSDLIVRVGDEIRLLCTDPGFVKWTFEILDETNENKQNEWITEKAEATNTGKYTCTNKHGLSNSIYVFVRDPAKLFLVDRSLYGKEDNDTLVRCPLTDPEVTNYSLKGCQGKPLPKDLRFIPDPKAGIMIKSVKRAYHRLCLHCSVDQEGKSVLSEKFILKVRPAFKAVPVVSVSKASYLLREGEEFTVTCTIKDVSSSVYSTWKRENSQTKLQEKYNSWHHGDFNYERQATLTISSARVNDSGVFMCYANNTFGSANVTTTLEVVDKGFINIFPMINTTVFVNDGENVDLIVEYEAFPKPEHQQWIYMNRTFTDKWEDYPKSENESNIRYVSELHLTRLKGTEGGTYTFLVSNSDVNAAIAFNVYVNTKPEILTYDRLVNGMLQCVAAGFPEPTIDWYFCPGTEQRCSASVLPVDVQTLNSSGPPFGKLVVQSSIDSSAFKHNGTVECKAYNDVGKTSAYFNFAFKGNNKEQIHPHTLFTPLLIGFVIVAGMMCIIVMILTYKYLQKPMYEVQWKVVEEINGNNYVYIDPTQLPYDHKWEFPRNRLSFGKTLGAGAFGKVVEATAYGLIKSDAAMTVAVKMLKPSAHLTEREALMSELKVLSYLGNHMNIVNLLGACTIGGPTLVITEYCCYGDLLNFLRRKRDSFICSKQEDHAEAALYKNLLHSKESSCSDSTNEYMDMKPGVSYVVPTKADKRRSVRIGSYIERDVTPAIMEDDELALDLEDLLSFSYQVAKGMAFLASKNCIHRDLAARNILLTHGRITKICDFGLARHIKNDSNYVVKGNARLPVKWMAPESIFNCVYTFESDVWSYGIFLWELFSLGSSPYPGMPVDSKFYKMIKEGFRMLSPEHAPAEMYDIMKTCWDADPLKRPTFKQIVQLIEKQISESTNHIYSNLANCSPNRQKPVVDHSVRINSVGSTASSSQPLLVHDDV
# T13 sequence (P10721 26-976 L576P): as the sequence (P10721 26-976 D816H) above, with L551P, H791D counted along it
# T15 sequence (P42684 whole entry): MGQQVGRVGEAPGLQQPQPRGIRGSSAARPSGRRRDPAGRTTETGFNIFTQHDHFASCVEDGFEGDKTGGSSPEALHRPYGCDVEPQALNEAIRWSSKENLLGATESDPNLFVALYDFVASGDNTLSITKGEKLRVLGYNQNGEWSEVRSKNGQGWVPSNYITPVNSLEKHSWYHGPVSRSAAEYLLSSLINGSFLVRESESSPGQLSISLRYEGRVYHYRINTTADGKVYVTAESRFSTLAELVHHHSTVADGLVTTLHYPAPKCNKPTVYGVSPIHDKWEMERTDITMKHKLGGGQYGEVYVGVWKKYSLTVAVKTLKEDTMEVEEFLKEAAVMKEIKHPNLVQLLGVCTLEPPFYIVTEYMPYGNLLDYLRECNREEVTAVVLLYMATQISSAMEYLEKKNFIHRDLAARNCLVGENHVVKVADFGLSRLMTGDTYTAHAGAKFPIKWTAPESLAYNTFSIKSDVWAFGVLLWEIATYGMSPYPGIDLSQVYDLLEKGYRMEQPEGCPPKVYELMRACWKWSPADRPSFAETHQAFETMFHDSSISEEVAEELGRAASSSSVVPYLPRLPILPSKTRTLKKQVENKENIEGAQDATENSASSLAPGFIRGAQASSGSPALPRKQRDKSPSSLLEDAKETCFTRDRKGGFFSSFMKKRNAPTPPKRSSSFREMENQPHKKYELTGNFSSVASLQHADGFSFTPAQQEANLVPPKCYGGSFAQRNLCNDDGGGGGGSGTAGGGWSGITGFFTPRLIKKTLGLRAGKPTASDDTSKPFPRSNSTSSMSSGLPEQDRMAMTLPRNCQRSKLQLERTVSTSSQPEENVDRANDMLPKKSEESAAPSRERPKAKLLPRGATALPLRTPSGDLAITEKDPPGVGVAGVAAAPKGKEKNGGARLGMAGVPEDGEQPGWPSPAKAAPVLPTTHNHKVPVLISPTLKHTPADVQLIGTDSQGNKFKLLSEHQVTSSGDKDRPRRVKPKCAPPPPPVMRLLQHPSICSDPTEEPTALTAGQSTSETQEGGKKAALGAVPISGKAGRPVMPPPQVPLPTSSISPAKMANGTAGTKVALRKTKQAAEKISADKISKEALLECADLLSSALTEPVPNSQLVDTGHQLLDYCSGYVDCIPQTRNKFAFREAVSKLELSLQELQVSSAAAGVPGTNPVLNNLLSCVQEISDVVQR
# T11 sequence (P07949 29-1114 V804L): as the sequence (P07949 29-1114) above, with V776L counted along it
SMILES,"% Ctrl, ABL1(E255K)-phosphorylated ([1]; ABL1(E255K)-phosphorylated)","% Ctrl, ABL1(H396P)-nonphosphorylated ([2]; ABL1(H396P)-nonphosphorylated)","% Ctrl, ABL1(H396P)-phosphorylated ([2]; ABL1(H396P)-phosphorylated)","% Ctrl, ABL1(M351T)-phosphorylated ([3]; ABL1(M351T)-phosphorylated)","% Ctrl, ABL1(Q252H)-nonphosphorylated ([4]; ABL1(Q252H)-nonphosphorylated)","% Ctrl, ABL1(Q252H)-phosphorylated ([4]; ABL1(Q252H)-phosphorylated)","% Ctrl, ABL1(Y253F)-phosphorylated ([5]; ABL1(Y253F)-phosphorylated)","% Ctrl, EGFR ([6]; EGFR)","% Ctrl, EGFR(G719S) ([7]; EGFR(G719S))","% Ctrl, EGFR(L861Q) ([8]; EGFR(L861Q))","% Ctrl, EGFR(T790M) ([9]; EGFR(T790M))","% Ctrl, RET ([10]; RET)","% Ctrl, RET(V804L) ([11]; RET(V804L))","% Ctrl, KIT(D816H) ([12]; KIT(D816H))","% Ctrl, KIT(L576P) ([13]; KIT(L576P))","% Ctrl, FLT3(D835V) ([14]; FLT3(D835V))","% Ctrl, ABL2 ([15]; ABL2)","% Ctrl, ABL1(E255K)-phosphorylated [1, 16]","% Ctrl, ABL1(H396P)-nonphosphorylated [2, 17]","% Ctrl, ABL1(H396P)-phosphorylated [2, 18]",also measured
"Cc1cc2c([nH]1)/C=C1\C(=O)Nc3cnc(cc31)-c1cnn(C)c1COCCNC2=O [Ex.123, [3a(4)Z]-6,14-dimethyl-10,11,13,14-tetrahydro-2H-17,1-(azenometheno)pyrazolo[4,3-m]dipyrrolo[3,2-f:3′,4′-i][1,4]oxazacyclopentadecine-3,8(5H,9H)-dione]",92 % Ctrl,100 % Ctrl,100 % Ctrl,100 % Ctrl,92 % Ctrl,100 % Ctrl,100 % Ctrl,98 % Ctrl,94 % Ctrl,100 % Ctrl,100 % Ctrl,91 % Ctrl,89 % Ctrl,100 % Ctrl,97 % Ctrl,91 % Ctrl,100 % Ctrl,,,,
CN1CCSCCOc2cc3c(cc2Cl)NC(=O)/C3=C\c2[nH]ccc2C1=O [Ex. 153],,,,,,,,,,,,,,,,,,8.4 % Ctrl,0.8 % Ctrl,16 % Ctrl,"% Ctrl, ABL1(M351T)-phosphorylated [3, 19]: 9.5 % Ctrl; % Ctrl, ABL1(Q252H)-nonphosphorylated [4, 20]: 1.8 % Ctrl; % Ctrl, ABL1(Q252H)-phosphorylated [4, 21]: 7.9 % Ctrl; % Ctrl, ABL1(Y253F)-phosphorylated [5, 22]: 13 % Ctrl; % Ctrl, EGFR ([6]; target EGFR): 61 % Ctrl; % Ctrl, EGFR(G719S) ([7]; target EGFR(G719S)): 45 % Ctrl; % Ctrl, EGFR(L861Q) ([8]; target EGFR(L861Q)): 43 % Ctrl; % Ctrl, EGFR(T790M) ([9]; target EGFR(T790M)): 83 % Ctrl; % Ctrl, RET ([10]; target RET): 2.4 % Ctrl; % Ctrl, RET(V804L) ([11]; target RET(V804L)): 6.1 % Ctrl; % Ctrl, KIT(D816H) ([12]; target KIT(D816H)): 27 % Ctrl; % Ctrl, KIT(L576P) ([13]; target KIT(L576P)): 0.1 % Ctrl; % Ctrl, FLT3(D835V) ([14]; target FLT3(D835V)): 0.3 % Ctrl; % Ctrl, ABL2 ([15]; target ABL2): 35 % Ctrl"
"Cc1cc2c([nH]1)/C=C1\C(=O)Nc3ccc(cc31)-c1cnn(C)c1CN(C)CCN(C)C2=O [Ex. 126, [3a(4)Z]-6,9,12,14-tetramethyl-9,10,11,12,13,14-hexahydro-1,17-(ethanediylidene)pyrazolo[4,3-m]dipyrrolo[3,2-f:3′,4′-i][1,4]diazacyclopentadecine-3,8(2H,5H)-dione]",0.55 % Ctrl,0 % Ctrl,0.1 % Ctrl,0.05 % Ctrl,1.7 % Ctrl,0.75 % Ctrl,0.25 % Ctrl,23 % Ctrl,57 % Ctrl,50 % Ctrl,1.6 % Ctrl,0 % Ctrl,0 % Ctrl,0 % Ctrl,0 % Ctrl,0 % Ctrl,0.9 % Ctrl,,,,
"CNC(=O)[C@H]1CN(C)C(=O)c2cc(C)[nH]c2/C=C2\C(=O)Nc3cc(Cl)c(cc32)OCCO1 [Ex. 135, [7R,16a(17)Z]-19-chloro-N,2,5-trimethyl-4,16-dioxo-4,5,6,7,9,10,15,16-octahydro-1H-12,14-(ethanediylidene)dipyrrolo[3,2-i:3′,4′-l][1,4,7]dioxazacyclopentadecine-7-carboxamide]",56 % Ctrl,29 % Ctrl,54 % Ctrl,48 % Ctrl,43 % Ctrl,47 % Ctrl,55 % Ctrl,100 % Ctrl,92 % Ctrl,86 % Ctrl,94 % Ctrl,33 % Ctrl,60 % Ctrl,80 % Ctrl,8.5 % Ctrl,6 % Ctrl,85 % Ctrl,,,,
"Cc1cc2c([nH]1)/C=C1\C(=O)Nc3cc(Cl)c(cc31)OCCO[C@@H](C(=O)N[C@@H]1CCNC1)CN(C)C2=O [Ex. 136, [7R,16a(17)Z]-19-chloro-2,5-dimethyl-4,16-dioxo-N-[(3R)-pyrrolidin-3-yl]-4,5,6,7,9,10,15,16-octahydro-1H-12,14-(ethanediylidene)dipyrrolo[3,2-i:3′,4′-l][1,4,7]dioxazacyclopentadecine-7-carboxamide]",36 % Ctrl,11 % Ctrl,22 % Ctrl,17 % Ctrl,24 % Ctrl,14 % Ctrl,16 % Ctrl,98 % Ctrl,92 % Ctrl,95 % Ctrl,96 % Ctrl,23 % Ctrl,50 % Ctrl,48 % Ctrl,4.8 % Ctrl,2 % Ctrl,77 % Ctrl,,,,
"Cc1nn(C)c2c1-c1ccc3c(c1)/C(=C/c1[nH]ccc1C(=O)N(C)CCCO2)C(=O)N3 [Ex. 150, [3a(4)Z]-9,14,16-trimethyl-10,11,13,14-tetrahydro-2H-1,17-(ethanediylidene)pyrazolo[4,3-m]dipyrrolo[3,2-f:3′,4′-i][1,4]oxazacyclopentadecine-3,8(5H,9H)-dione]",,,,,,,,,,,,,,,,,,95 % Ctrl,100 % Ctrl,100 % Ctrl,"% Ctrl, ABL1(M351T)-phosphorylated [3, 19]: 94 % Ctrl; % Ctrl, ABL1(Q252H)-nonphosphorylated [4, 20]: 93 % Ctrl; % Ctrl, ABL1(Q252H)-phosphorylated [4, 21]: 100 % Ctrl; % Ctrl, ABL1(Y253F)-phosphorylated [5, 22]: 100 % Ctrl; % Ctrl, EGFR ([6]; target EGFR): 61 % Ctrl; % Ctrl, EGFR(G719S) ([7]; target EGFR(G719S)): 8 % Ctrl; % Ctrl, EGFR(L861Q) ([8]; target EGFR(L861Q)): 69 % Ctrl; % Ctrl, EGFR(T790M) ([9]; target EGFR(T790M)): 86 % Ctrl; % Ctrl, RET ([10]; target RET): 93 % Ctrl; % Ctrl, RET(V804L) ([11]; target RET(V804L)): 77 % Ctrl; % Ctrl, KIT(D816H) ([12]; target KIT(D816H)): 87 % Ctrl; % Ctrl, KIT(L576P) ([13]; target KIT(L576P)): 94 % Ctrl; % Ctrl, FLT3(D835V) ([14]; target FLT3(D835V)): 13 % Ctrl; % Ctrl, ABL2 ([15]; target ABL2): 95 % Ctrl"
